We go through two compounds from patent publication US11590242B2, “Antibody-mediated autocatalytic, targeted delivery of nanocarriers to tumors” (Yale University, priority 2016, dated 2023).

The subject of one data set is Cal12T lung cancer cells. Briefly: Delivery of nanoparticles into living cells (fluorescence microscopy, anti-myc immunostaining). In kind it is cell-based. The settings on record: fixed cells.
Data set [1] can be described thus: Blood concentrations of DOX-NPs with and without 3E10^EN as a function of time. In kind it is in vivo, BALB/c mice. Conditions: 1 mg DOX-NPs i.v., coumarin 6 co-loaded, 5 min-48 h. The protocol: Blood concentrations of DOX-NPs with and without conjugation of 3E10^EN recorded as a function of time. To enable detection of NPs, NPs were co-loaded with 1% coumarin 6. Six BALB/c mice were randomly assigned to two groups, which received intravenous administration of 1 mg DOX-NPs with and without conjugation of 3E10^EN, respectively. At 5 min, 15 min, 30 min, 1 h, 2 h, 4 h, 6 h, 24 h, 36 h and 48 h post injection, 20 uL blood sample from each mouse was collected into a 1.5 mL Eppendorf tube and lyophilized. Then, 100 uL DMSO and 1 mL acetonitrile were added to each tube. After sonication in a water bath sonicator for 15 min, samples were subjected to centrifugation at 4000 rpm for 20 min to remove cellular fragments and blood albumin. Then, 0.8 ml supernatant from each sample was collected and added to an eppendorf tube. The acetonitrile was evaporated and the dye in the DMSO was quantified at Ex/Em 444/505 nm using a plate reader (BioTek ELx800).

Data set [2] relates to 4T1 murine breast cancer cells. Briefly: Cytotoxicity evaluation, MTT assay. In kind it is cell-based, mouse. The settings on record: three days treatment, listed as Free DOX. On the procedure: All chemicals were purchased from Sigma-Aldrich unless otherwise noted. The mouse mammary tumor cell line 4T1 was obtained from American Type Culture Collection (ATCC) and cultured in DMEM medium (Invitrogen) supplemented with 10% fetal bovine serum (Invitrogen), 100 units/ml penicillin and 100 ug/ml streptomycin (Invitrogen), in a 37° C. incubator containing 5% CO2.
4T1 cells were plated in a 96-well cell culture plate at a concentration of 2×10^3 per well and incubated with concentrations of nanoparticles ranging from 1.25 to 500 ug/mL. The same amounts of free DOX were added to parallel wells as controls. Three days after treatment, the effect of treatments on cell proliferation was determined using the standard MTT assay.
For orientation: Tetrazolium dyes change colour on reduction, which living cells bring about.

In a further data set the test system is 4T1 tumors. Briefly: Antitumor evaluation in mouse tumor xenografts. In kind it is in vivo, mice. Conditions: end of study, vs PBS control, i.v. three times a week. The protocol:
Mice bearing 4T1 tumors were established as described above. […] Treatment was performed 3 times per week. Nanoparticles were administered at 1 mg, equal to 80 ug DOX per mouse. Tumor sizes were measured three times a week. Mice were euthanized when tumor volume reached 1000 mm^3, at which point the tumors were excised and fixed in formalin for immunohistochemistry. Serial sections were obtained and stained with hematoxylin and eosin (H&E) and Terminal Deoxynucleotidyl Transferase (TUNEL) for analysis of therapeutic effect. The growth curve was plotted using the mean of the tumor volumes for each treatment group, at each timepoint.

Regarding “3E10^EN: enhanced di-single chain variable fragment of anti-DNA antibody 3E10 with D31N mutation, SEQ ID NO:12”, in the data set on Cal12T lung cancer cells, the “Subcellular localization of di-scFv” value was “penetrated into cell nuclei”. For the same compound, the “Circulation life of NPs” value in data set [1] is “did not alter the circulation life of NPs”.
In the case of `COc1cccc2c1C(=O)c1c(O)c3c(c(O)c1C2=O)C[C@@](O)(C(=O)CO)C[C@@H]3O[C@H]1C[C@H](N)[C@H](O)[C@H](C)O1` [DOX, doxorubicin], the “Effect on viability of 4T1 cells” value in data set [2] is listed as “comparable inhibition of cells”. The “Reduction of tumor volume” value with 4T1 tumors was 26%.
